Earlier results as cited in patent publication EP2742940A1, “Salts of aza-bicyclo-di-aryl ethers for adminstration once daily, twice daily or thrice daily” (IP Gesellschaft für Management mbH, priority 2012, dated 2014).
Values joined by “and” are separate entries in the source; they are usually repeats but may differ in a detail not shown here. Equal entries are not always repeated. Where two headings read alike, the source gives them in different places. Values belong to the compound of their own block, whether it stands above or below them.

Legend:
[1] = set-up: Initial water content / Hygroscopy @ 85%RH: unit not given here; details: for Initial water content: Example 7 comparison of salt forms; for moisture gain: at 85% RH
P-Erk = details: A375 cells, P-Erk In-Cell-Western, 3 hrs treatment
[2] = rat; for PK-parameters compared to Example 1: one-way analysis of variance; for %F: p.o. (3 mg/kg)
A375 cells = details: XTT, three days after compound addition
[3] = at 65°C
[4] = dogs (N=3), 1.4 µmol/kg p.o.
BRAF-MEK-ERK cascade = BRAF-MEK-ERK cascade assay, mean ± SEM, n=3
DUSP6 = details: A375 tumor bearing athymic-nude rats, single oral dose, at 12h and 24h (p=0.003 and p=0.006), two-way analysis of variance
[5] = male Wistar rats, oral 10 mg/kg, Mean All (n=8)
[6] = male Wistar rats, oral 10 mg/kg, Median [range]
[7] = male Wistar rats, oral 10 mg/kg, individual rats 01-08, listed as mono-fumarate, 10 mg/kg

Structure (SMILES): Cc1ccc(-c2ccc(O[C@H]3CN4CCC3CC4)cn2)cc1.Cl [Hydrochloride, Form A, chloride salt (hydrochloride) of (R)-3-(6-(4-methylphenyl)-pyridin-3-yloxy)-1-aza-bicyclo[2.2.2]octane]
- Hygroscopy @ 85%RH [1]: ∼5
- Initial water content [1]: ∼5
- moisture gain [1]: about 5%

- EC50 (P-Erk): 15.6 nM
- PK-parameters compared to Example 1 [2]: improved PK-parameters
- %F [2]: 126%
- GI50 (A375 cells): 29.6 nM
Structure (SMILES): O=S(=O)(Nc1c(Nc2ccc(I)cc2F)c(F)c(F)c2ccoc12)C1(C[C@@H](O)CO)CC1 [Example 1B, (R)-N-(4,5-difluoro-6-((2-fluoro-4-iodophenyl)amino)benzofuran-7-yl)-1-(2,3-dihydroxypropyl)cyclopropane-1-sulfonamide]

- solubility in lactic acid [3]: > 600 mg/mL
Structure (SMILES): Cc1cn(-c2cc(NC(=O)c3ccc(C)c(Nc4nccc(-c5cccnc5)n4)c3)cc(C(F)(F)F)c2)cn1 [nilotinib, 4-methyl-3-[[4-(3-pyridinyl)-2-pyrimidinyl]amino]-N-[5-(4-methyl-1 H-imidazol-1-yl)-3-(trifluoromethyl)phenyl] benzamide]

Structure (SMILES): Cc1ccc(-c2ccc(O[C@H]3CN4CCC3CC4)cn2)cc1.O=C(O)/C=C/C(=O)O [Compound B, fumarate salt of (R)-3-(6-(4-methylphenyl)-pyridin-3-yloxy)-1-aza-bicyclo[2.2.2]octane]
- Hygroscopy @ 85%RH [1]: 0.5
- Initial water content [1]: <0.5
- moisture gain [1]: 0.5%
- Plasma (pmoles/ml±SD) ([4]; 0.5 hour): 49.4 ± 21.9 pmol/mL
- Plasma (pmoles/ml±SD) ([4]; 1 hour): 67.6 ± 22.6 pmol/mL
- Plasma (pmoles/ml±SD) ([4]; 2 hour): 75.2 ± 36.8 pmol/mL
- Plasma (pmoles/ml±SD) ([4]; 4 hour): 27.5 ± 13.3 pmol/mL
- Plasma (pmoles/ml±SD) ([4]; 8 hour): 8.1 ± 3.0 pmol/mL
- Plasma (pmoles/ml±SD) ([4]; 24 hour): 0.8 ± 0.7 pmol/mL
- Plasma (pmoles/ml±SD) ([4]; fumarate salt form, 0.25 hour): 14.7 ± 1.1 pmol/mL
- T1/2 (male Wistar rats, oral 10 mg/kg, Mean All): 3.76 h
- AUClast [5]: 249 ng·h/mL
- AUClast/Dose (h·ng/mL)/(mg/kg) [5]: 25.4 (h·ng/mL)/(mg/kg)
- Cmax [5]: 161 ng/mL
- Cmax/Dose (ng/mL)/(mg/kg) [5]: 16.5 (ng/mL)/(mg/kg)
- Concentration in plasma, Time (h) 0.25 [5]: 149 ng/mL
- Concentration in plasma, Time (h) 0.5 [5]: 132 ng/mL
- Concentration in plasma, Time (h) 1 [5]: 77.4 ng/mL
- Concentration in plasma, Time (h) 2 [5]: 38.9 ng/mL
- Concentration in plasma, Time (h) 3 [5]: 19.5 ng/mL
- Concentration in plasma, Time (h) 4 [5]: 10.6 ng/mL
- Concentration in plasma, Time (h) 6 [5]: 5.10 ng/mL
- Concentration in plasma, Time (h) 8 [5]: 2.54 ng/mL
- Concentration in plasma, Time (h) 24 [5]: 0320 ng/mL
- Tlast [6]: 24.0 h
- Tmax [6]: 0.25 h
- AUClast [7]: 202 ng·h/mL and 259 ng·h/mL and 212 ng·h/mL and 188 ng·h/mL and 269 ng·h/mL and 292 ng·h/mL and 298 ng·h/mL and 272 ng·h/mL
- AUClast/Dose (h·ng/mL)/(mg/kg) [7]: 20.8 (h·ng/mL)/(mg/kg) and 26.3 (h·ng/mL)/(mg/kg) and 21.4 (h·ng/mL)/(mg/kg) and 192 (h·ng/mL)/(mg/kg) and 28.0 (h·ng/mL)/(mg/kg) and 30.1 (h·ng/mL)/(mg/kg) and 29.6 (h·ng/mL)/(mg/kg) and 27.9 (h·ng/mL)/(mg/kg)
- Cmax [7]: 167 ng/mL and 162 ng/mL and 78.4 ng/mL and 99.7 ng/mL and 242 ng/mL and 204 ng/mL and 184 ng/mL and 153 ng/mL
- Cmax/Dose (ng/mL)/(mg/kg) [7]: 17.2 (ng/mL)/(mg/kg) and 16.4 (ng/mL)/(mg/kg) and 7.88 (ng/mL)/(mg/kg) and 102 (ng/mL)/(mg/kg) and 25.2 (ng/mL)/(mg/kg) and 21.1 (ng/mL)/(mg/kg) and 18.3 (ng/mL)/(mg/kg) and 15.7 (ng/mL)/(mg/kg)
- Concentration in plasma, Time (h) 0.25 [7]: 167 ng/mL and 162 ng/mL and 77.8 ng/mL and 890 ng/mL and 242 ng/mL and 204 ng/mL and 93.3 ng/mL and 153 ng/mL
- Concentration in plasma, Time (h) 0.5 [7]: 104 ng/mL and 130 ng/mL and 784 ng/mL and 99.7 ng/mL and 143 ng/mL and 179 ng/mL and 184 ng/mL and 138 ng/mL
- Concentration in plasma, Time (h) 1 [7]: 67.1 ng/mL and 88.8 ng/mL and 41.3 ng/mL and 62.8 ng/mL and 83.2 ng/mL and 80.8 ng/mL and 101 ng/mL and 94.2 ng/mL
- Concentration in plasma, Time (h) 2 [7]: 27.4 ng/mL and 39.2 ng/mL and 378 ng/mL and 24.6 ng/mL and 47.1 ng/mL and 37.6 ng/mL and 54.8 ng/mL and 42.6 ng/mL
- Concentration in plasma, Time (h) 3 [7]: 12.4 ng/mL and 17.7 ng/mL and 25.3 ng/mL and 11.7 ng/mL and 19.6 ng/mL and 20.6 ng/mL and 25.1 ng/mL and 23.2 ng/mL
- Concentration in plasma, Time (h) 4 [7]: 906 ng/mL and 10.6 ng/mL and 13.3 ng/mL and 5.90 ng/mL and 9.71 ng/mL and 11.8 ng/mL and 13.0 ng/mL and 11.1 ng/mL
- Concentration in plasma, Time (h) 6 [7]: 749 ng/mL and 3.47 ng/mL and 7.63 ng/mL and 5.79 ng/mL and 4.29 ng/mL and 4.24 ng/mL and 4.05 ng/mL and 3.87 ng/mL
- Concentration in plasma, Time (h) 8 [7]: 291 ng/mL and 2.35 ng/mL and 3.62 ng/mL and 2.62 ng/mL and 2.46 ng/mL and 1.94 ng/mL and 238 ng/mL and 207 ng/mL
- T1/2 [7]: 2.44 h and 5.02 h and 3.62 h and 3.71 h and 2.02 h and 3.97 h and 5.51 h
- Tlast [7]: 8.0 h (2×) and 24.0 h (6×)
- Tmax [7]: 0.25 h (3×) and 025 h (2×) and 0.50 h (3×)
- AUClast (rats, acute oral dosing of 10 mg/kg): 249+-42 h ng/ml
- Cmax of the free form in plasma (rats, acute oral dosing of 10 mg/kg (relative to free form)): 161+-53 ng/ml

Structure (SMILES): Cc1ccc(-c2ccc(O[C@H]3CN4CCC3CC4)cn2)cc1.O=C(O)CCC(=O)O [Succinate, succinate salt of (R)-3-(6-(4-methylphenyl)-pyridin-3-yloxy)-1-aza-bicyclo[2.2.2]octane]
- Hygroscopy @ 85%RH [1]: 0.3
- Initial water content [1]: ∼4.5
- moisture gain [1]: 0.3%

- EC50 (P-Erk): 12.2 nM
- %F [2]: 87%
- GI50 (A375 cells): 17.6 nM
- IC50 (BRAF-MEK-ERK cascade): 2.1 ± 0.58 nM
Structure (SMILES): O=S(=O)(Nc1c(Nc2ccc(I)cc2F)c(F)c(F)c2ccoc12)C1(CC(O)CO)CC1 (racemic) [Example 1, N-(4,5-difluoro-6-((2-fluoro-4-iodophenyl)amino)benzofuran-7-yl)-1-(2,3-dihydroxypropyl)cyclopropane-1-sulfonamide]

Structure (SMILES): Cc1ccc(-c2ccc(O[C@H]3CN4CCC3CC4)cn2)cc1.O=C(O)/C=C\C(=O)O [Maleate, maleate salt of (R)-3-(6-(4-methylphenyl)-pyridin-3-yloxy)-1-aza-bicyclo[2.2.2]octane]
- Hygroscopy @ 85%RH [1]: 0.3
- Initial water content [1]: <0.1
- moisture gain [1]: 0.3%

Structure (SMILES): Cc1ccc(-c2ccc(O[C@H]3CN4CCC3CC4)cn2)cc1.O=C(O)CC(=O)O [Malonate, malonate salt of (R)-3-(6-(4-methylphenyl)-pyridin-3-yloxy)-1-aza-bicyclo[2.2.2]octane]
- Hygroscopy @ 85%RH [1]: 1.3
- Initial water content [1]: ∼0
- moisture gain [1]: 1.3%

Structure (SMILES): Cc1ccc(-c2ccc(O[C@H]3CN4CCC3CC4)cn2)cc1.O=P(O)(O)O [Phosphate, Form A, phosphate salt of (R)-3-(6-(4-methylphenyl)-pyridin-3-yloxy)-1-aza-bicyclo[2.2.2]octane]
- Hygroscopy @ 85%RH [1]: 0.2
- Initial water content [1]: ∼0.5
- moisture gain [1]: 0.2%

- EC50 (P-Erk): 6.4 nM
- PK-parameters compared to Example 1 [2]: improved PK-parameters
- %F [2]: 132%
- GI50 (A375 cells): 13.4 nM
- IC50 (BRAF-MEK-ERK cascade): 2 ± 0.25 nM
Structure (SMILES): O=S(=O)(Nc1c(Nc2ccc(I)cc2F)c(F)c(F)c2ccoc12)C1(C[C@H](O)CO)CC1 [Example 1A, (S)-N-(4,5-difluoro-6-((2-fluoro-4-iodophenyl)amino)benzofuran-7-yl)-1-(2,3-dihydroxypropyl)cyclopropane-1-sulfonamide]
- lowering levels of DUSP-6 in tumor (DUSP6): significantly more effective than Example- IB
